Results on two compounds are retold here after article PMC9886892, “Imidazolium salts as an alternative for anti-Leishmania drugs: Oxidative and immunomodulatory activities” (Frontiers in Immunology, 2023).

Each structure is given as a SMILES string. Like-named read-outs stand apart in the source and are kept apart here.

The subject of data set [1] is Macrophages RAW 264.7 cell line.
Data set [2] can be described thus: in vitro. As to conditions: mouse.
The subject of data set [3] is human erythrocytes. Here is the method:
Triton X-100 1% was used as positive control. The hemolytic assay was performed according to the procedure used by ([13]). […] The microplate was incubated at 37°C under agitation (90 rpm) for 60 min. Then, the suspension was centrifuged at 3,000 rpm for 5 min, and the absorbance of the supernatant was measured at 540 nm using a spectrophotometer EZ Read 400 from Biochrom. Triton X-100 1% and PBS were used as positive and negative control, respectively. […] The selectivity index (SI) (CC50 or RBC50/IC50 against L. amazonensis) were determined for each compound.

Data set [4] has as its system L. amazonensis promastigotes. In words: microbe, parasite or virus in culture. To be noted: Leishmania amazonensis, 48 h.
Protocol: (§1) Subsequently, 0.5 mg/mL of 3-(4,5-dimethylthiazol-2-yl)-2,5-diphenyltetrazolium bromide (MTT, Sigma-Aldrich®, St. Louis, MO, USA) was added and the incubations continued for an additional 4 h at 26 °C. The purple formazan product that was formed by the action of mitochondrial enzymes in living cells was solubilized by the addition of acidic isopropanol, and the absorbance at 570 nm was measured using a microplate reader spectrophotometer EZ Read 400 from Biochrom. […] The 50% inhibitory concentration (IC50) value for each compound was determined. The survival rate was calculated according to the formula: OD in treated group/OD of untreated group x 100. The 50% inhibitory concentration (IC50) value for each compound was determined by nonlinear regression analysis using GraphPad Prism 5.03 software.
Data set [5] has as its system L. amazonensis promastigotes. In words: Mitochondrial membrane potential (rhodamine 123, flow cytometry). The class given is cell-based, Leishmania (L.) amazonensis. To be noted: IS 2-fold IC50, 6 h; amphotericin B 0.4 µM; hydrogen peroxide 2 mM. From the text: A total of 30,000 events were acquired in the region that corresponded to the parasites. Histograms were build using the CellQuest Pro software (Joseph Trotter, Scripps Research Institute, La Jolla, CA, USA).
(In flow cytometry, cells or beads pass a laser one at a time.)

Data set [6] deals with L. amazonensis promastigotes. As to conditions: 100 µM screening concentration, 48 h.
Protocol: as §1
Data set [7] relates to L. amazonensis amastigotes in RAW 264.7 macrophages. In words: Intramacrophage anti-amastigote activity. It counts as cell-based, Leishmania (L.) amazonensis. As to conditions: Leishmania amazonensis, RAW264.7, 48 h, read-out: IC50 (CI 95%): concentration of compound that causes 50% of L. amazonensis amastigotes mortality. The method, then: The anti-amastigote assay was performed as previously described ([13]). Macrophages RAW 264.7 cell line (ATCC) were cultured in DMEM plus 10% fetal bovine serum (FBS), penicillin (100 U/mL) and streptomycin (100 µg/mL) until reaching 90% confluence, when were distributed into 96-well microplates at a concentration of 2 x 10^5 cells/well in the presence of DMEM. […] The leishmanicidal activity of macrophages was assessed by determining the number of viable parasites (4 replicates) using a hemocytometer.

In data set [8] the test system is L. amazonensis promastigotes. In words: Cell membrane integrity (propidium iodide, flow cytometry). The class given is cell-based, Leishmania (L.) amazonensis. To be noted: 1.8 µM (IC50), 48 h.
Protocol: After 48 h at 26°C, the parasites were harvested and washed twice with PBS, resuspended and incubated with 100 μL of propidium iodide (PI – Sigma–Aldrich) 50 μg/mL at 26°C for 15 min. Following, each sample was completed with 400 μL of PBS and a total of 20,000 events were acquired and analyzed on BD FACScalibur flow cytometer and CellQuest Pro software. PI fluorescence intensity was quantified as the percentage of the fluorescence compared with untreated promastigotes ([30]). Results were obtained from two independent experiments performed in triplicate.
Data set [9] has as its system L. infantum chagasi promastigotes. In words: microbe, parasite or virus in culture. To be noted: Leishmania infantum, 48 h, read-out: IC50 (CI 95%): concentration of compound that causes 50% of L. infantum chagasi promastigotes mortality.
Protocol: as §1
In data set [10] the test system is human erythrocytes. As to conditions: cited from earlier work.
Data set [11] deals with L. infantum chagasi promastigotes. To be noted: read-out: IC50 (CI 95%): concentration of compound that causes 50% of L. infantum chagasi promastigotes mortality, 48 h, MTT.
Protocol: as §1
The subject of data set [12] is L. amazonensis promastigotes. Details: method as in PMID 30077823. To be noted: read-out: IC50 for L. amazonensis promastigotes (previous study); cited from earlier work.
Data set [13] has as its system Macrophages RAW 264.7 cell line. To be noted: read-out: CC50 towards macrophages (previous study); cited from earlier work.

Consider `CCCCCCCCCCCCCCCCn1c(C)c(C)[n+](C)c1C.[Cl-]` [C16M4ImCl, 1-hexadecyl-2,3,4,5-tetramethylimidazolium chloride], for which, in data set [1], the “SI: selectivity index, ratio of CC50 for macrophage/IC50 for L. amazonensis amastigotes” value is 89 and the “SI: selectivity index, ratio of CC50 for macrophage/IC50 for L. amazonensis promastigotes” value worked out at 10. In data set [2], this compound returned a CC50 of 17.8 µM and a viability of 90%. In data set [3], the “SI: selectivity index, ratio of CC50 for RBC hemolysis/IC50 for L. amazonensis amastigotes” value is listed as 78 and the “SI: selectivity index, ratio of CC50 for RBC hemolysis/IC50 for L. amazonensis promastigotes” value stood at 8.7. The “RBC50 (CI 95%): concentration of compound that causes 50% of red blood cell hemolysis” value in [3] (human red blood cells, 60 min, 37°C) is 15.6 (14.5-16.8) µM. For the same compound, the IC50 in data set [4] (read-out: IC50 (CI 95%): concentration of compound that causes 50% of L. amazonensis promastigotes mortality) was 1.8 µM. In data set [4] (read-out: mortality of L. amazonensis promastigotes), the mortality at 5 µM was found to be 95%. Further, the “mitochondrial membrane potential (ΔΨm) alteration” value in data set [5] is reported as “significant ΔΨm depolarization”. The “L. amazonensis mortality in the screening test” value in [6] is 100%. The IC50 in data set [7] is 0.2 µM. In addition, the “L. amazonensis integrity (panoptic stain)” value in data set [8] is “total lysis of the parasites”. For the same compound, in [9], the IC50 worked out at 14.9 µM.
On to `CCCCCCCCCCCCCCCCn1cc[n+](C)c1.CS(=O)(=O)[O-]` [C16MImMeS, 1-hexadecyl-3-methylimidazolium methanesulfonate], for which the “RBC50 erythrocytes (previous study)” value in [10] is listed as 36.9 µM. Besides, the figures for the IC50 in [11] and in [12] were 10.8 µM and 0.75 µM, respectively. Besides, the CC50 in data set [13] is 11.5 µM.

Broadly, the viability is a per cent measure of how many cells are alive, often set against a control. Low values mean a greater loss of cells, high ones better survival. The term mortality denotes the share of the test organisms that died.
